Data taken from PubChem BioAssay AID1159565 (GlaxoSmithKline (GSK), 2015).
Active and inactive are the calls of the source. The rule behind the calls is not given here.

Test system: T. cruzi-infected H9C2 cardiomyocytes, high-content imaging
Test: intracellular T. cruzi amastigote inhibition, imaging, H9C2 host cardiomyocytes, host toxicity (AID 1159565);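 note: infected cells incubated 72 h after plating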
[1] = measured here: H9C2 host cell toxicity
[2] = measured here: amastigotes per cell

Row | Structure (SMILES) | IC50 | IC50 [1] | IC50 [2]
1 | Cc1cc2nc(CN(C)Cc3ncccc3C)[nH]c2cc1C | 1 µM | 13 µM | 0.5 µM
2 | Oc1c(-c2n[nH]c(CCc3ccccc3)n2)ncc2cccnc12 | 0.2 µM | 16 µM | 0.2 µM
3 | CCOc1cnn(C)c(=O)c1Nc1ccc(C(=O)NCc2ccc(F)cc2)cc1 | 0.1 µM | > 50 µM | 0.13 µM
4 | Cn1nc(-c2ccc(NC(=O)Cc3ccccc3Cl)cc2)c2c(N)ncnc21 | 1.3 µM | 7.9 µM | 1 µM
5 | COc1ccc2ncc(=O)n(CCN3CCC(NCc4ccc(-c5cccs5)cc4)CC3)c2n1 | 1.6 µM | 7.9 µM | 0.16 µM
6 | Cc1ccc(Nc2nc(-c3ccccn3)cc(N3CCCC(O)C3)n2)cc1 (stereo not drawn) | 6.3 µM | 0.5 µM | 2.5 µM
7 | O=C(Nc1nc(-c2ccc(S(=O)(=O)N3CCOCC3)cc2)cs1)c1ccc([N+](=O)[O-])cc1 | 1.6 µM | > 50 µM | 0.5 µM
8 | Fc1ccc(OC2CC(NCc3cccc4cn[nH]c34)C2)cc1C(F)(F)F (stereo not drawn) | 0.2 µM | 7.9 µM | 0.16 µM
9 | Cc1nc(-c2ccc3c(c2)OCO3)sc1C(=O)NCc1ccc2c(c1)OCO2 | 0.79 µM | > 50 µM | 0.5 µM
10 | O=C(Nc1nc2cc(Cl)ccc2o1)c1cccc(Cl)c1 | 0.79 µM | 2.5 µM | 0.63 µM
11 | CN(C)CCN(C)Cc1ccc(Cl)cc1NS(=O)(=O)c1ccc(Cl)c(Cl)c1 | 2 µM | 5 µM | 2 µM
12 | COc1ccc(C(=O)NC2CCN(CCn3c(=O)ccc4ncc(F)cc43)CC2)cc1Cl | 0.63 µM | > 50 µM | 0.32 µM
13 | c1ccc(-c2nc(NCc3ccco3)c3ccccc3n2)nc1 | 3.2 µM | 2 µM | 4 µM
14 | O=C(NCc1ccc(Cl)cc1)C1CN(C(=O)c2ccc(F)cc2)CCS1 (stereo not drawn) | 40 µM | > 50 µM | 32 µM
15 | CC(=O)Nc1cccc(Nc2ncnc3nc[nH]c23)c1 | 40 µM | > 50 µM | 25 µM
16 | C[C@@H](Oc1cc(-n2cnc3cc(N)ccc32)sc1C(N)=O)c1ccccc1Cl | 20 µM | 1 µM | 5 µM
17 | COc1ccc(-c2csc(NC(=O)c3ccc([N+](=O)[O-])s3)n2)cc1 | 0.25 µM | 32 µM | 0.2 µM
18 | NC(=O)c1cc(F)ccc1Nc1nc(NC2CCC(O)CC2)ncc1Br (stereo not drawn) | 2 µM | 0.5 µM | 0.79 µM
19 | O=C(Cc1ccccc1)Nc1ccccc1C(=O)Nc1nccs1 | > 50 µM (inactive) | > 50 µM | > 50 µM
20 | COc1ccc2nccc([C@H](O)CN3CC[C@H](NC(=O)c4ccc(Br)cc4)[C@@H](O)C3)c2n1 | 1.6 µM | 2 µM | 0.16 µM
21 | Cc1nccn1C1CCCN(C(=O)c2cc3c(F)cccc3s2)C1 (stereo not drawn) | 1 µM | > 50 µM | 0.79 µM
22 | Cn1nc([N+](=O)[O-])nc1N1CCCCC1 | 13 µM | > 50 µM | 1 µM
23 | O=C(c1ccc(OCCCc2cnc[nH]2)cc1)C1CC1 | 1.6 µM | > 50 µM | 1.3 µM
24 | COc1ccccc1C=CCN1C[C@H]2CCC[C@@H](C1)C2(O)c1cccnc1 (stereo partly drawn) | 0.04 µM | > 50 µM | 0.04 µM

Row | Structure (SMILES) | IC50 | IC50 [1] | IC50 [2]
25 | NS(=O)(=O)c1ccc(CNC(=O)c2ccc([N+](=O)[O-])s2)cc1 | 5 µM | 20 µM | 0.79 µM
26 | Cc1ccc(C)c(CN2C(=O)NC3(CCc4ccccc43)C2=O)c1 (stereo not drawn) | 20 µM | > 50 µM | 7.9 µM
27 | COc1ccc2ncc(F)c(NC(=O)C3(O)CCC(NCc4ccc5c(c4)OCCO5)CC3)c2n1 (stereo not drawn) | 0.13 µM | 32 µM | 0.16 µM
28 | Cc1cccc(NS(=O)(=O)c2cnc3sc(C)cn3c2=O)c1 | 2 µM | 6.3 µM | 1 µM
29 | Cc1c(C#N)c([N+](=O)[O-])nn1Cc1cccc(Cl)c1Cl | 0.1 µM | > 50 µM | 0.04 µM
30 | COc1ccc([N+](=O)[O-])cc1NC(=O)c1cc(Cl)ccc1O | 16 µM | > 50 µM | 7.9 µM
31 | Cc1cc(Oc2cc(Cl)c(Cl)cc2Cl)n2ncnc2n1 | 25 µM | 7.9 µM | 10 µM
32 | Cc1nn(-c2ccccc2)nc1CNC(=O)CN(Cc1ccccn1)Cc1ccccn1 | 10 µM | 63 µM | 3.2 µM
33 | Cc1cc(NC(=O)c2ccc([N+](=O)[O-])s2)ccc1Br | 0.4 µM | 2.5 µM | 0.25 µM
34 | CCOc1ccc(OCC(=O)N2c3ccccc3CC2C(=O)NC)cc1 (stereo not drawn) | > 50 µM (inactive) | > 50 µM | > 50 µM
35 | COc1ccc2ncc(=O)n(CCN3CC[C@H](NCc4ncc(Cl)c5[nH]ncc45)[C@H](O)C3)c2n1 | 3.2 µM | > 50 µM | 1.6 µM
36 | O=C(Nc1ccc(C(F)(F)F)cc1)NC1(C(=O)NCc2ccco2)CCCCC1 | > 50 µM (inactive) | > 50 µM | > 50 µM
37 | Cc1ccc(CNC2CCN(C[C@@H]3Cn4c(=O)ccc5ccc(=O)n3c54)CC2)cc1F | 1.3 µM | > 50 µM | 1 µM
38 | O=C1COC(c2ccccc2)(c2ccccc2)CN1C1CCN(Cc2ccc(-n3ccnc3)cc2)CC1 | 2 µM | 32 µM | 0.5 µM
39 | Nc1nc(-c2ccccc2)cc(-c2nc3ncccc3[nH]2)n1 | 2 µM | 13 µM | 1.6 µM
40 | Cc1[nH]c2ccccc2c(=O)c1Cc1c(C)[nH]c2ccccc2c1=O | 3.2 µM | > 50 µM | 1 µM
41 | O=C1CSC(c2cccnc2)N1c1ccc(Cl)cc1Cl (stereo not drawn) | 0.25 µM | > 50 µM | 0.16 µM
42 | Cc1ccc2ccc(C(Nc3ccccn3)c3cccnc3)c(O)c2n1 (stereo not drawn) | 0.2 µM | 32 µM | 0.2 µM
43 | COc1ccc(Nc2nc(-c3ccccn3)cs2)c(OC)c1 | 7.9 µM | 2 µM | 5 µM
44 | N#Cc1cccc(CN2CCC(c3nc(-c4ccc(C(F)(F)F)nc4)no3)CC2)c1 | 2 µM | > 50 µM | 2.5 µM
45 | CC1=C(C(=O)Nc2ccc(Cl)cc2)C(c2ccncc2)n2ncc(C(=O)Nc3ccccc3)c2N1 (stereo not drawn) | 0.02 µM | > 50 µM | 0.02 µM
46 | Cc1ccccc1OCC(=O)N1CCCN(c2cccnn2)CC1 | 0.63 µM | > 50 µM | 0.5 µM
47 | Cc1[nH]nc(-c2nc3ccccc3[nH]2)c1C(=O)NC1CCCNC1 (stereo not drawn) | 0.063 µM | 3.2 µM | 0.04 µM
48 | CN(C)CCN(C)Cc1ccc(F)cc1NS(=O)(=O)c1ccc(Cl)c(Cl)c1 | 2.5 µM | 6.3 µM | 2 µM

Row | Structure (SMILES) | IC50 | IC50 [1] | IC50 [2]
49 | O=C(NCc1nnc2n1CCCCC2)c1csc(-c2ccccc2)n1 | 2 µM | > 50 µM | 2 µM
50 | Cc1cccnc1CN1CCN(CCCOc2ccc(-c3ccc(C(N)=O)cc3)cc2)CC1 | 20 µM | > 50 µM | 0.4 µM
51 | Cc1[nH]nc(C(F)(F)F)c1NC(=O)CCn1cc(Cl)c([N+](=O)[O-])n1 | 25 µM | > 50 µM | 6.3 µM
52 | CCc1cccc(-n2nc(OCC(=O)NC3CCCC3)c3cccnc32)c1 | > 50 µM (inactive) | > 50 µM | > 50 µM
53 | CCN(CC)c1nc(Nc2ccncc2)nc2ccccc12 | 0.079 µM | 7.9 µM | 0.005 µM
54 | Cc1ccnc(NS(=O)(=O)c2ccc(NC(=O)c3ccc([N+](=O)[O-])s3)cc2)n1 | 10 µM | 5 µM | 6.3 µM
55 | CCN(CC)S(=O)(=O)c1ccc(OC)c(NC(=O)c2ccc([N+](=O)[O-])s2)c1 | 0.16 µM | > 50 µM | 0.13 µM
56 | CCc1ccccc1[C@@H](C)NC(=O)c1cnc2c(cnn2CC)c1NC1CCN(C(N)=O)CC1 | > 50 µM (inactive) | > 50 µM | 40 µM
57 | COc1cnc2ccc(=O)n(CCN3CCC(NC(=O)c4ccc(Cl)cc4)CC3)c2c1 | 0.25 µM | 0.63 µM | 0.079 µM
58 | CC(=O)Nc1ccc(-c2csc(NC(=O)c3ccc([N+](=O)[O-])s3)n2)cc1 | 0.13 µM | 5 µM | 0.1 µM
59 | Cc1cn[nH]c1C1CCCN(Cc2nc3ccccc3n2C)C1 (stereo not drawn) | 20 µM | > 50 µM | 10 µM
60 | COc1ccc2ncc(=O)n(CCN3CCOC(CNCc4ccc(C(F)(F)F)cc4F)C3)c2n1 (stereo not drawn) | 1.6 µM | > 50 µM | 0.63 µM
61 | CS(=O)(=O)NC1CCC(Nc2ncc(Br)c(Nc3ccccc3C(N)=O)n2)CC1 (stereo not drawn) | 5 µM | 0.5 µM | 2 µM
62 | CC(C)Nc1nccc(-c2c(-c3ccc(F)cc3)ncn2C2CCOCC2)n1 | 0.32 µM | > 50 µM | 0.2 µM
63 | Cc1nc2c(-c3n[nH]c(-c4ccccc4N)n3)cccn2c1C | 2.5 µM | 5 µM | 1.6 µM
64 | COc1ccc(S(=O)(=O)Nc2ccc(CN3CCN(C(=O)c4cccc(C#N)c4)CC3)cc2)cc1 | 1 µM | > 50 µM | 0.79 µM
65 | CCN(Cc1cccs1)C(=O)CSc1nnc(-c2ccc3c(c2)OCO3)o1 | 2.5 µM | > 50 µM | 1.6 µM
66 | Cn1nc(C(=O)N2CCc3ccccc32)c2c1CCS(=O)(=O)C2 | 13 µM | > 50 µM | 7.9 µM
67 | CCCNC(=O)Nc1cccc(-c2nc3ncccc3o2)c1 | 4 µM | 25 µM | 3.2 µM
68 | CC(C)(C)C(O)(CCc1ccc(Cl)cc1)Cn1cncn1 (stereo not drawn) | 0.25 µM | > 50 µM | 0.2 µM
69 | O=C(CCCn1cnc([N+](=O)[O-])n1)Nc1cccc(Cl)c1 | 0.5 µM | > 50 µM | 0.16 µM
70 | Clc1ccc(C(CC2CCCCO2)Cn2cncn2)c(Cl)c1 (stereo not drawn) | 1.3 µM | > 50 µM | 1 µM
71 | CC(c1ccc2c(c1)CCCC2)N(C)c1ncc2c(N)nc(N)nc2n1 (stereo not drawn) | 0.032 µM | 10 µM | 0.01 µM
